Measured values from PubChem BioAssay (NCI).
Several values for one entry are separate records, joined by “and”; a condition that tells them apart may be missing. Equal values may be shown once.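 These data come from cells grown in 96-well plates and exposed to compound for 48 hours at five concentrations. GI50: concentration for 50% inhibition of growth. TGI denotes the concentration required for complete inhibition of growth.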

What was measured:
Assay in all cases: NCI anticancer screen, dose series, 48 h
OVCAR-3 ovarian = tested on: OVCAR-3 ovarian
SK-MEL-28 melanoma = tested on: SK-MEL-28 melanoma
SK-OV-3 ovarian = tested on: SK-OV-3 ovarian
SK-MEL-5 melanoma = tested on: SK-MEL-5 melanoma
SW-620 colon = tested on: SW-620 colon
NCI-H460 lung = tested on: NCI-H460 lung
U251 CNS = tested on: U251 CNS
EKVX NSCLC = tested on: EKVX NSCLC
786-0 renal = tested on: 786-0 renal
NCI-H522 lung = tested on: NCI-H522 lung

| SMILES | TGI (OVCAR-3 ovarian) [µM] | TGI (SK-MEL-28 melanoma) | TGI (SK-OV-3 ovarian) [µM] | TGI (SK-MEL-5 melanoma) [µM] | TGI (SW-620 colon) [µM] | TGI (NCI-H460 lung) [µM] | TGI (U251 CNS) [µM] | TGI (EKVX NSCLC) [µM] | TGI (786-0 renal) [µM] | TGI (NCI-H522 lung) | GI50 (OVCAR-3 ovarian) [µM] | GI50 (SK-MEL-28 melanoma) [µM] | GI50 (SK-OV-3 ovarian) | GI50 (SK-MEL-5 melanoma) [µM] | GI50 (SW-620 colon) | GI50 (NCI-H460 lung) [µM] | GI50 (U251 CNS) [µM] | GI50 (NCI-H522 lung) [µM] | GI50 (786-0 renal) [µM] | GI50 (EKVX NSCLC) [µM] |
| --- | --- | --- | --- | --- | --- | --- | --- | --- | --- | --- | --- | --- | --- | --- | --- | --- | --- | --- | --- | --- |
| Cc1cccc(-c2nc3c(C(=O)NCCN(C)C)cccc3[nH]2)c1 | 6.55 | 3.46 µM | 6.07 | 3 | 1.91 | 5.99 | 5.77 | 3.5 | 7.88 | – | – | – | – | – | – | – | – | – | – | – |
| CSc1nc(NC2OCC(OC(C)=O)C(OC(C)=O)C2OC(C)=O)c2c(OC(C)=O)c(C)c(=O)oc2n1 (configuration not stated) | > 100 | – | > 100 | > 100 | > 100 | > 100 | > 100 | > 100 | > 100 | – | – | – | – | – | – | – | – | – | – | – |
| O=C1C(Cl)=C(Cl)C(=O)N1C1C2CC3CC(C2)CC1C3 (configuration not stated) | – | > 100 µM | > 100 | > 100 | > 100 | > 100 | > 100 | > 100 | > 100 | > 64.5 µM | – | – | – | – | – | – | – | – | – | – |
| C1CC[N-]CC1.C1CC[N-]CC1.C1CC[N-]CC1.C1CC[N-]CC1.[Cl][Rh][Cl] | 41.3 | 21.6 µM | > 100 | 18.9 | > 100 | 26.5 | 23.8 | – | > 100 | 2.65 µM | 10.6 | 3.36 | 14.8 µM | 4.2 | 6.12 µM | 2.87 | 4.72 | 1.03 | 41.4 | – |
| COc1ccc(-n2c(SCc3cc(OC)c(OC)c(OC)c3)nc3ccc(C)cc3c2=O)c(OC)c1 | 7.04 | > 100 µM | > 100 | > 100 | > 100 | > 100 | > 100 | – | > 100 | 72.7 µM | 2.84 | 5.79 | 4.96 µM | 3.39 | 4.49 µM | 3.68 | 4.86 | 3.58 | 4.99 | – |
| CCCCCCCCCCC/C(=N/O)c1ccc(O)c2ncccc12 | – | > 100 µM | – | 4.18 | > 100 | 17 | 23.5 | 20.1 | 30.2 | 6.57 µM | – | – | – | – | – | – | – | – | – | – |
| CC[C@]1(O)CC2CN(CCc3c([nH]c4ccccc34)[C@@](C(=O)OC)(c3cc4c(cc3OC)N(C)[C@H]3[C@@](O)(C(=O)OC)[C@H](OC(C)=O)[C@]5(CC)C=CCN6CC[C@]43[C@@H]65)C2)C1 (some centres not stated) | < 0.005 | – | 0.00977 | 0.0607 | 8.54 | 5.8 | 6.5 | > 50 | 3.13 | 0.00536 µM | < 0.005 | – | < 0.005 µM | < 0.005 | < 0.005 µM | < 0.005 | < 0.005 | < 0.005 | < 0.005 | 0.00956 |
| CC(C)NCCNC(=O)c1ccccc1Nc1c(Cl)cccc1Cl | 26.6 | 28.1 µM | 28 | 17.3 | 30.4 | 11 | 16.8 | 28.1 | 16 | – | – | – | – | – | – | – | – | – | – | – |
| OCCCCC#Cc1ccccc1C#Cc1ccccc1 | – | 41.6 µM | 26.7 | 28.6 | 34.4 | 62.6 | 23.8 | 22.4 | 22.5 | > 100 µM | – | 17 | 10.7 µM | 14.4 | 15.7 µM | 22.4 | 11.5 | 27 | 8.6 | 6.59 |
| CC1OC(n2ncc(=O)[nH]c2=O)C=CC1=O (configuration not stated) | > 100 | 93.8 µM and 46 µM | > 100 | – | > 100 | > 100 | > 100 | – | > 100 | 37.6 µM and 36.2 µM | – | – | > 100 µM and 29.3 µM | – | > 100 µM and 44.1 µM | – | – | – | – | – |
| COCCn1cc(-c2csc(-c3c[nH]c4ccccc34)n2)c2cccnc21 | > 100 | > 100 µM | > 100 | > 100 | > 100 | > 100 | > 100 | > 100 | > 100 | – | 2.94 | 8.18 | 14.8 µM | 3.22 | 3.52 µM | 3.4 | 6.12 | – | 6.25 | 2 |
| N#CC(=S)Nc1cccc(Cl)c1 | 56.4 | > 100 µM | 87.9 | 44.5 | > 100 | > 100 | > 100 | > 100 | > 100 | – | – | – | – | – | – | – | – | – | – | – |
| [Cl][Bi]([O]c1ccccn1)[O]c1ccccn1 | > 100 | > 100 µM | > 100 | > 100 | > 100 | – | > 100 | > 100 | > 100 | – | > 100 | > 100 | > 100 µM | 40.2 | > 100 µM | – | > 100 | – | > 100 | > 100 |
| COc1ccc(/C=C/C(=O)c2cc3c(N)c(C(=O)Nc4ccccc4Cl)sc3nc2C)cc1 | 16.3 | – | 19 | 8.79 | > 50 | > 50 | 29.6 | > 50 | 2.18 | > 50 µM | 2.11 | – | 3.58 µM | 1.36 | 3.39 µM | 2.2 | 3.36 | 0.365 | 0.839 | 2.25 |
| Cc1ccc(NC(=O)CC2C(=O)Nc3ccccc3S2=O)cc1C (configuration not stated) | > 100 | > 100 µM | – | > 100 | > 100 | > 100 | > 100 | > 100 | 68.8 | > 100 µM | – | – | – | – | – | – | – | – | – | – |
| CC(=O)O[C@H]1C(=O)[C@@]2(C)C(C(OC(=O)c3ccccc3)[C@]3(O)CC(OC(=O)[C@H](OC(=O)CCC(=O)O)C(NC(=O)c4ccccc4)c4ccccc4)C(C)=C1C3(C)C)C1(OC(C)=O)COC1C[C@@H]2OC(=O)CCC(=O)O (some centres not stated) | > 54.2 | 86.9 µM | > 100 | > 100 | > 100 | – | > 100 | > 100 | > 100 | – | 1.89 | – | – | – | – | – | – | – | – | – |
| N#CC(C(=O)/C(=N/N)C(C#N)c1ccc(Cl)cc1)c1ccc(Cl)cc1 (configuration not stated) | > 100 | – | – | > 100 | > 100 | > 100 | > 100 | > 100 | > 100 | > 100 µM | – | – | – | – | – | – | – | – | – | – |
